The subject of data set [1] is σ2 receptors. As to the kind of experiment: PDSP binding study, σ2 receptors. The conditions noted are these: versus the other four hits of the primary screen.
A short description of data set [2]: Solubility, shake-flask method. Type of data set: physicochemical. The conditions noted are these: thermodynamic from solid. The protocol:
The solubility of CW-02-79 in selected oils, organic solvents, and water solutions of various pH values was examined by using the shake-flask method, by adding an excess amount of CW-02-79. The blends were mixed on a vortex mixer for 24 h at 25 ± 2 °C to reach equilibrium. The samples were centrifuged (1000× g, 10 min, 25 °C) on a MiniSpin® plus centrifuge (Eppendorf, Hamburg, Germany). The concentration of CW-02-79 was determined after proper dilution of the supernatant with isopropanol using the LC-MS/MS method.
The concentration of CW-02-79 was determined using a LC-MS/MS method. The analysis was performed on a UHPLC chromatograph ACELLA (Thermo Fisher Scientific Inc., Madison, WI, USA), coupled to a triple quadrupole mass spectrometer TSQ Quantum Access MAX (Thermo Fisher Scientific Inc., Madison, WI, USA) with a heated electrospray ionization (HESI) interface. The column was XTerra MS C18 (150 mm × 2.1 mm, […] particle size). The mobile phase was acetonitrile/0.1% formic acid = 70:30 (v/v), the flow rate was 0.2 mL min^−1, the column temperature was set to 35 °C, and the injection volume was 10 µL. CW-02-79 and the internal standard were detected and quantified in the positive HESI mode (m/z = 389.90–345.90 and m/z = 349.00–304.11, respectively).

The nature of data set [3]: In vitro permeation through iPSC-derived blood–brain barrier model. It is filed as in vitro ADME, human. As to conditions: inserts without cells; read-out: recovery of CW-02-79 without cells.
Excerpt: The in vitro BBB model based on the co-culture of iPSC-derived brain microvascular endothelial cells, astrocytes, and pericytes was used to estimate the transport of CW-02-79 into the brain from the developed nanoemulsions (the protocol used is available on the manufacturer’s website: iCell Blood Brain Barrier Isogenic Kit protocol, FujiFilm Cellular Dynamic Inc., Madison, WI, USA) [24]. Cell culture inserts for BBB co-cultures (pore size 0.4 µm, effective cell growth area 0.33 cm^2, Falcon®, Corning Inc., Salt Lake City, UT, USA) were coated on the apical side with a fibronectin-collagen IV matrix and on the basolateral side with a 0.1% gelatin solution. Then, astrocyte and pericyte suspensions were seeded on the basolateral side, with brain microvascular endothelial cells in the apical region of inserts, followed by overnight incubation at 37 °C and 5% CO2. […]
The total volume on the basolateral side was compensated with 100 µL of the fresh termostated medium. […] The mass balance (%) was also determined based on the amount of CW-02-79 determined in both the apical and basolateral compartments at the end of the assay divided by the total amount of CW-02-79 placed in the apical compartment to assess the potential adsorption to plastic or non-specific binding to cells.
Data set [4] addresses σ2 receptors. Further details: method as in PDSP Ki database https://pdspdb.unc.edu/databases/kidb.php. The conditions noted are these: ref PDSP Ki database https://pdspdb.unc.edu/databases/kidb.php; cited from earlier work.
For another data set, the target named is 5-HT7 receptor. Set-up: method as in PDSP Ki database https://pdspdb.unc.edu/databases/kidb.php. The conditions noted are these: ref PDSP Ki database https://pdspdb.unc.edu/databases/kidb.php; cited from earlier work.
Data set [5] deals with benzodiazepine binding site at GABAA receptors. Set-up: method as in PDSP Ki database https://pdspdb.unc.edu/databases/kidb.php. The conditions noted are these: ref PDSP Ki database https://pdspdb.unc.edu/databases/kidb.php; cited from earlier work.
Another data set addresses histamine H2 receptor. Further details: method as in PDSP Ki database https://pdspdb.unc.edu/databases/kidb.php. The conditions noted are these: ref PDSP Ki database https://pdspdb.unc.edu/databases/kidb.php; cited from earlier work.
In another data set the target is dopamine transporter. Further details: method as in PDSP Ki database https://pdspdb.unc.edu/databases/kidb.php. As to conditions: ref PDSP Ki database https://pdspdb.unc.edu/databases/kidb.php; cited from earlier work.
In data set [6] the test system is GABAA receptors that contain any of the α1 to α6 subunits. Further details: method as in personal communication with Dr. Janet Fisher. The conditions noted are these: 10 µM; ref personal communication with Dr. Janet Fisher; cited from earlier work.
Details of data set [7]: method as in unpublished data, MM Savić and B Divović Matović. As to conditions: doses 1 to 30 mg/kg; ref unpublished data, MM Savić and B Divović Matović; cited from earlier work.

≈ marks a conversion by molar mass, not a printed value.

Here are results for 1 compound from paper PMC11858841, “Intravenous Nanoemulsions Loaded with Phospholipid Complex of a Novel Pyrazoloquinolinone Ligand for Enhanced Brain Delivery” (Pharmaceutics, 2025).

Usually solubility stands for how much of the substance goes into solution per volume. The term Ki denotes a measure of affinity in units of concentration, obtained from inhibition or displacement. As for `COc1ccc2c3nn(-c4ccc(OC(F)(F)F)cc4)c(=O)c-3c[nH]c2c1C` [CW-02-79, 7-methoxy-6-methyl-2-(4-(trifluoromethoxy)phenyl)-2,5-dihydro-3H-pyrazolo [4,3-c]quinolin-3-one], the “selectivity for σ2 receptors” value with σ2 receptors [1] is on record as no less than 20 fold. The solubility at 24 h in data set [2] (aqueous buffer, Phosphate buffer, pH 7.4, 25 °C) worked out at 11.8 ± 0.7 µg/mL (≈ 30.3 µM); in data set [2] (oil or lipid, Castor oil, 25 °C) it was 27.96 ± 0.03 µg/mL (≈ 71.8 µM); in data set [2] (oil or lipid, Fish oil, 25 °C) it was 34.19 ± 0.06 µg/mL (≈ 87.8 µM); in [2] (oil or lipid, MCT, 25 °C), 49.93 ± 0.07 µg/mL (≈ 128 µM); in [2] (oil or lipid, MCT:castor oil (1:1, w/w), 25 °C), 218.4 ± 0.3 µg/mL (≈ 561 µM); in data set [2] (oil or lipid, MCT:soybean oil (1:1, w/w), 25 °C), 41.41 ± 0.04 µg/mL (≈ 106 µM). In addition, the solubility at 24 h in data set [2] (oil or lipid, Soybean oil, 25 °C) was 65.68 ± 0.43 µg/mL (≈ 169 µM); in data set [2] (organic solvent or mixture, DMSO, 25 °C), greater than 30000 µg/mL; in [2] (organic solvent or mixture, Isopropanol, 25 °C), 5750 µg/mL (≈ 14800 µM); in data set [2] (organic solvent or mixture, Methanol, 25 °C), 939.1 ± 3.53 µg/mL (≈ 2410 µM); in data set [2] (simulated gastric fluid, 0.1M HCl, 25 °C) it was 12.3 ± 0.61 µg/mL (≈ 31.7 µM); in data set [2] (Ultrapure water, 25 °C), 11.8 ± 0.2 µg/mL (≈ 30.2 µM). In [3], the recovery at 24 h, 3 µM was roughly 100%. In addition, the Ki is 0.112 µM on σ2 receptors [4]; 2.4 µM on 5-HT7 receptor; 4.7 µM in [5]; 5.2 µM at histamine H2 receptor; greater than 10 µM at dopamine transporter. Moreover, in data set [6], the “modulation of GABAA receptors” value is given as “does not at all modulate”. Moreover, in data set [7], the “signs of sedation or motor incapacitation” value is recorded as “no signs of sedation or motor incapacitation”.
